Earlier results on two compounds are cited in patent publication US20060287301A1, “Novel formulations for phenothiazines, including fluphenazine and its derivatives” (priority 2005, published 2006).

SMILES strings stand for the structures. Structures can show the parent of a compound that is named as a salt. Where two headings read alike, the source gives them in different places.

The conditions of this data set: words only.

With `OCCN1CCN(CCCN2c3ccccc3Sc3ccc(C(F)(F)F)cc32)CC1` [Fluphenazine HCl], the solubility in water entry (HCl) is reported as “poorly soluble”.
As for `OCCN1CCN(CCCN2c3ccccc3Sc3ccc(C(F)(F)F)cc32)CC1` [Fluphenazine, fluphenazine], the solubility in water result is listed as “marginally water soluble”.
